We go through five compounds from patent US5338758A (Schering Corporation, priority 1992, dated 1994).

Bounds are passed on as bounds.

The IC50 is the concentration at which inhibition is half-maximal.

For data set [1], the system named is PAF-Induced Human Platelet Aggregation. The data set is described as follows: PAF-induced human platelet aggregation assay (in vitro PAF antagonism). The format is cell-based. To be noted: for IC50: human platelet-rich plasma, 37° C., 2 min preincubation, PAF 1-5×10^-8 M, 0.1% DMSO, read-out: IC50 (PAF activity, inhibition of PAF-induced human platelet aggregation). As to the method: Preparation of Platelet-Rich Plasma (PRP): Human blood (50 ml) is collected from healthy male donors. The blood is mixed with an anticoagulant solution (5 ml) containing sodium citrate (3.8%) and dextrose (2%). Blood is centrifuged at 200×g for 20 min. and the supernatant PRP is carefully transferred into a polypropylene tube. Platelet-poor-plasma (PPP) is prepared by centrifuging PRP at 800×g for 15 min. in a Beckman Microfuge B. PRP is used within 3 hours of drawing the blood.
Platelet Aggregation Assay: When an aggregating agent such as PAF is added to PRP, platelets aggregate. An aggregometer quantifies this aggregation by measuring light (infra-red) transmission through PRP and comparing it to transmission through PPP. The aggregation assays are performed using a dual-channel aggregometer (Model 440, Chrono-Log Corp., Havertown, Pa.). PRP (0.45 ml) in aggregometer curettes is continually stirred (37° C.). Solutions of test compounds in DMSO or vehicle alone (final concentration of DMSO=0.1% v/v) are added to the PRP, and, after incubation for 2 min., 10- 15 μl aliquots of PAF solution are added so as to achieve a final concentration of 1-5×10^-8 M. Incubations are continued until the increase in light transmission reaches a maximum (usually about 2 min). Values for inhibition are calculated by comparing maximal aggregation obtained in the absence and the presence of the compound. […]

Data set [2] in a line: Solubility. The format is physicochemical.
The subject of data set [3] is PAF. To be noted: disclosed in JP 03,216,197; cited from earlier work.

`C/C1=C\CCC2(C)O[C@H]2C(=O)C2=CC[C@H](C)[C@@](C)(CC1)[C@@H]2C=O` (relative stereo) [Compound I]: in data set [1], the “PAF antagonistic properties (in words)” value is reported as “antagonistic properties” and the IC50 came out at 6960 nM. Further, in data set [2], the solubility in acetone result is reported as “partially soluble”, the solubility in chloroform entry was “soluble”, the solubility in dichloromethane result is “soluble” and the “solubility in dimethyl sulfoxide” value was “soluble”. Further, in data set [2], the “solubility in ethyl acetate” value was “partially soluble”, the solubility in hexane result is “insoluble”, the solubility in methanol result is recorded as “partially soluble” and the “solubility in petroleum ether” value is given as “insoluble”. Moreover, the solubility in water result in data set [2] is on record as “insoluble”.
In the case of `CC1=CCC2=CCC(C)C(C)(CCC(C)=CCC1)C2C` (centres unmarked) [Compound IV], in data set [1], the “PAF antagonistic properties (in words)” value is recorded as “antagonistic properties” and the IC50 was above 36000 nM. Besides, in data set [2], the solubility in acetone result is “soluble”, the solubility in chloroform entry is reported as “soluble”, the solubility in dichloromethane result is “soluble” and the “solubility in dimethyl sulfoxide” value is “partially soluble”. For the same compound, in data set [2], the “solubility in ethyl acetate” value is “partially soluble”, the solubility in hexane result is reported as “partially soluble”, the solubility in methanol entry is recorded as “partially soluble” and the solubility in water result is “insoluble”.
Regarding `CC1=CCCC2(C)OC2C2(O)OCC3=C2C(O)CC(C)C3(C)CC1` (centres unmarked) [III], in data set [1], the “PAF antagonistic properties (in words)” value is “antagonistic properties” and the IC50 was 1260 nM. In addition, in data set [2], the solubility in acetone result was “partially soluble”, the solubility in chloroform result is given as “soluble”, the solubility in dichloromethane entry was “soluble” and the “solubility in dimethyl sulfoxide” value is listed as “soluble”. For the same compound, in data set [2], the “solubility in ethyl acetate” value is “partially soluble”, the solubility in hexane entry is “insoluble”, the solubility in methanol entry is “partially soluble” and the “solubility in petroleum ether” value is on record as “insoluble”. Moreover, the solubility in water result in data set [2] is “insoluble”.
For `CC1=CCCC2(C)OC2C2(O)OCC3C2=C(O)CC(C)C3(C)CC1` (centres unmarked) [II], in data set [1], the “PAF antagonistic properties (in words)” value is listed as “antagonistic properties” and the IC50 stood at 1680 nM. Also, in data set [2], the solubility in acetone result was “partially soluble”, the solubility in chloroform entry was “soluble”, the solubility in dichloromethane entry is given as “soluble” and the “solubility in dimethyl sulfoxide” value is reported as “soluble”. Further, in data set [2], the “solubility in ethyl acetate” value is reported as “partially soluble”, the solubility in hexane result was “insoluble”, the solubility in methanol entry was “partially soluble” and the “solubility in petroleum ether” value is listed as “insoluble”. Further, the solubility in water result in data set [2] was “insoluble”.
For `CC1=CCCC2(C)OC2C(=O)C2=CC(O)C(C)C(C)(CC1)C2(C)O` (centres unmarked) [Phomactin B, phomactin B], the “PAF antagonist activity (in words)” value in data set [3] is on record as “PAF antagonist”.
